Data: patent publication US6919424B2, “Binding peptides for carcinoembryonic antigen (CEA)” (Dyax Corp., priority 2000, dated 2005)
Bridge positions count the residues as written; N and C are the ends. Ends that are not written are not given here. Peptide text beside a SMILES is read from it. * marks the point of attachment. 5FAM = O=C1OC2(c3ccc(O)cc3Oc3cc(O)ccc32)c2ccc(C(=O)*)cc21

Experiments:
H6NA3 = molecular target: T1, H6NA3 (Homo sapiens, UniProt P06731); experiment: Fluorescence anisotropy direct binding to H6NA3 / NA3
T1 construct: H6NA3, consisting of a hexahistidine leader and the N and A3 domains of CEA, was used
T1 sequence (P06731 35-144 limits assumed): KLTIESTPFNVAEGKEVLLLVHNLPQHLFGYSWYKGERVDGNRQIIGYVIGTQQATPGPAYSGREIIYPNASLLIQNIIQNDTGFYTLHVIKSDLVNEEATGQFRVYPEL
T1 sequence (P06731 501-588 limits assumed): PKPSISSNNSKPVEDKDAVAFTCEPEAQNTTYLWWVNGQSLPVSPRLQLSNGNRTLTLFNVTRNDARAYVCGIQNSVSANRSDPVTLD
Description: (§1) Each peptide was also provided with a C-terminal amide-functional linker useful for immobilizing peptides to various chromatographic substrates: -Ala18-Pro19-Gly20-Gly-Glu-Gly-Gly-Gly-Ser-Lys-CONH2 (SEQ ID NO:28). […] Aliquots of each peptide were fluorescently labeled using NHS-fluorescein reacted with the ε-amino side group of the C-terminal lysine.
Dissociation constants were determined using fluorescence anisotropy, through direct binding measurements and competition experiments. In direct binding assays, the concentration of the fluorescein-labeled peptide is held constant and the concentration of H6NA3 is varied. In the competition experiment, the concentration of the fluorescein-labeled peptide and the H6NA3 target are held constant and the concentration of a competitor (cT84.66, unlabeled) is varied. The change in anisotropy is fit to the appropriate equation via nonlinear regression to obtain the apparent Kd.
Aliquots of each peptide were fluorescently labeled using NHS-fluorescein reacted with the ε-amino side group of the C-terminal lysine.
Dissociation constants were determined using fluorescence anisotropy, through direct binding measurements (see Example 6).
as §1, with “Peptides including the binding domain of the CEA binder Isolates were synthesized by solid-phase synthesis. Each” for “Each”
Dissociation constants were determined using fluorescence anisotropy, through direct binding measurements to either NA-3 or CEA in PBS with 0.01% TWEEN 20. […] Isolate 304A-12-H12, previously isolated from Lib2 and assayed for binding, was analyzed in parallel as a control. […] KD standard error values are calculated from the nonlinear regression (SIGMAPLOT, SPSS Science, Chicago, Ill.).

NA3 = molecular target: T2, NA3 (Homo sapiens, UniProt P06731); experiment: Phage ELISA with varying amounts of NA3 per well (FIGS. 2, 4, 5); assay type: binding; conditions: FIG. 2; 100, 50, 10, 5, 1, 0 ng per well
T2 construct: H6NA3, consisting of a hexahistidine leader and the N and A3 domains of CEA, was used
T2 sequence (P06731 35-144 limits assumed): T1 sequence (P06731 35-144 limits assumed)
T2 sequence (P06731 501-588 limits assumed): T1 sequence (P06731 501-588 limits assumed)
Description: The first bar for each sample represents wells each having 100 ng CEA. Successive bars represent 50 ng, 10 ng, 5 ng, 1 ng, and 0 ng CEA per well.
The first bar for each sample represents wells each having 30 ng NA3. Successive bars represent 10 ng, 3 ng, and 0 ng NA3 per well.
Several Isolates gave especially strong ELISA signals and these were tested further.
Several Isolates gave especially strong ELISA signals and these were tested further. […] Isolate 304A-12-H12 (designated DX306) was assayed in parallel as a basis for comparison.

CEA = molecular target: T3, CEA (Homo sapiens, UniProt P06731); experiment: Fluorescence anisotropy direct binding to CEA; conditions: for binding to CEA (in words): compared with binding to NA3
T3 construct: purchased
T3 sequence (P06731 35-676): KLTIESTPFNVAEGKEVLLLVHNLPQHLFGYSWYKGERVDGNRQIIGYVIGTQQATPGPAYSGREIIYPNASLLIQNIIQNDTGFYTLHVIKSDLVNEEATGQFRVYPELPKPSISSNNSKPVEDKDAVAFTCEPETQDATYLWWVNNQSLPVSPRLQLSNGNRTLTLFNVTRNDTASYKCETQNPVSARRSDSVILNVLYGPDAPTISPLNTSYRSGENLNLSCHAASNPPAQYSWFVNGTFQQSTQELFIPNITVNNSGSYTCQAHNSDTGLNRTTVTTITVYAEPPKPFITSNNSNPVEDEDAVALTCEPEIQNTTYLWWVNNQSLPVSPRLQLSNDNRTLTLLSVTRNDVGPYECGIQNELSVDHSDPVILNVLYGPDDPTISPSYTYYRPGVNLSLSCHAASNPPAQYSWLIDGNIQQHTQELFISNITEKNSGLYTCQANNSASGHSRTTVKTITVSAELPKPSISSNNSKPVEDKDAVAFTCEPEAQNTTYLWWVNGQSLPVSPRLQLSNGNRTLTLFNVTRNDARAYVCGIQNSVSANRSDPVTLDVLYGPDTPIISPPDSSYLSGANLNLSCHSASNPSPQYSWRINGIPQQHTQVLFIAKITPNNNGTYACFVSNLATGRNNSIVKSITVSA
Description: Dissociation constants were determined using fluorescence anisotropy, through direct binding measurements to either NA-3 or CEA in PBS with 0.01% TWEEN 20. In direct binding assays, the concentration of the fluorescein-labeled peptide is held constant and the concentration of NA3 is varied. In the competition experiment, the concentration of the fluorescein-labeled peptide and the NA3 target are held constant and the concentration of competitor peptide (from Isolate 12-H12) is varied. The change in anisotropy is fit to the appropriate equation via nonlinear regression to obtain the apparent Kd. Isolate 304A-12-H12, previously isolated from Lib2 and assayed for binding, was analyzed in parallel as a control. Replicate analyses were run for certain binders and are reported to confirm accuracy and precision of measurements. KD standard error values are calculated from the nonlinear regression (SIGMAPLOT, SPSS Science, Chicago, Ill.).

phage ELISA binding profile to varying amounts of NA3 (NA3) | Molecule | binding to CEA (in words) (CEA) | also measured
 | CC(C)C[C@H](NC(=O)[C@@H](NC(=O)[C@H](CC(=O)O)NC(=O)[C@@H]1CSSC[C@H](NC(=O)[C@@H](NC(=O)[C@H](Cc2c[nH]c3ccccc23)NC(=O)[C@H](CC(=O)O)NC(=O)[C@@H](N)CO)C(C)C)C(=O)N[C@@H](CCC(=O)O)C(=O)N[C@@H](Cc2ccc(O)cc2)C(=O)N[C@@H](Cc2ccccc2)C(=O)N[C@@H](CCCCN)C(=O)N[C@@H](CC(N)=O)C(=O)N[C@@H](CCC(N)=O)C(=O)N[C@@H](Cc2c[nH]c3ccccc23)C(=O)N[C@@H](Cc2ccccc2)C(=O)N1)[C@@H](C)O)C(=O)N[C@@H](C)C(=O)N1CCC[C@H]1C(=O)NCC(=O)NCC(=O)N[C@@H](CCC(=O)O)C(=O)NCC(=O)NCC(=O)NCC(=O)N[C@@H](CO)C(=O)N[C@@H](CCCCNC(=O)c1ccc2c(c1)C(=O)OC21c2ccc(O)cc2Oc2cc(O)ccc21)C(N)=O [Hybrid H12/A12, DWVCEYFKNQWFCDTL] |  | CEA binding characteristics compared with other isolates (H6NA3; direct binding KD, Table 7): comparable to the Isolates obtained from the initial library screen
do not drop off so quickly | CC(C)C[C@@H]1NC(=O)[C@H](CC(N)=O)NC(=O)[C@@H](NC(=O)[C@@H](NC(=O)[C@H](Cc2c[nH]c3ccccc23)NC(=O)[C@H](CC(=O)O)NC(=O)[C@@H](N)CO)C(C)C)CSSC[C@@H](C(=O)N[C@@H](CC(=O)O)C(=O)N[C@H](C(=O)N[C@@H](CC(C)C)C(=O)N[C@@H](C)C(=O)N2CCC[C@H]2C(=O)NCC(=O)NCC(=O)N[C@@H](CCC(=O)O)C(=O)NCC(=O)NCC(=O)NCC(=O)N[C@@H](CO)C(=O)N[C@@H](CCCCNC(=O)c2ccc3c(c2)C(=O)OC32c3ccc(O)cc3Oc3cc(O)ccc32)C(N)=O)[C@@H](C)O)NC(=O)[C@H](Cc2ccccc2)NC(=O)[C@H](Cc2c[nH]c3ccccc23)NC(=O)[C@H](CCC(N)=O)NC(=O)[C@H](CC(N)=O)NC(=O)[C@H](CCCCN)NC(=O)[C@H](Cc2ccccc2)NC1=O [Isolate 304A-14-A12, DWVCNLFKNQWFCDTL] |  | increase in affinity compared to the Isolate G08 peptide (H6NA3; from KD of Table 7 versus Table 3): several fold increase in affinity
 | CC(C)C[C@H](NC(=O)[C@H](CO)NC(=O)[C@H](CC(N)=O)NC(=O)[C@@H]1CSSC[C@H](NC(=O)[C@@H](NC(=O)[C@H](Cc2c[nH]c3ccccc23)NC(=O)[C@H](CC(=O)O)NC(=O)[C@@H](N)CO)C(C)C)C(=O)N[C@@H](CCC(=O)O)C(=O)N[C@@H](Cc2c[nH]c3ccccc23)C(=O)N[C@@H](CC(C)C)C(=O)N[C@@H](CCCCN)C(=O)N2CCC[C@H]2C(=O)N[C@@H](CCC(N)=O)C(=O)N[C@@H](Cc2c[nH]c3ccccc23)C(=O)N[C@@H](Cc2ccc(O)cc2)C(=O)N1)C(=O)N[C@@H](C)C(=O)N1CCC[C@H]1C(=O)NCC(=O)NCC(=O)N[C@@H](CCC(=O)O)C(=O)NCC(=O)NCC(=O)NCC(=O)N[C@@H](CO)C(=O)N[C@@H](CCCCNC(=O)c1ccc2c(c1)C(=O)OC21c2ccc(O)cc2Oc2cc(O)ccc21)C(N)=O [Isolate 315A-17-B12] (H-SDWVCEWLKPQWYCNSLAPGGEGGGSK(5FAM)-NH2; disulfide 5-14; N-terminus assumed) | did not appear to bind CEA | CEA KD (μM) direct binding (CEA; Table 10, commercial CEA, PBS with 0.01% TWEEN 20): (no binding)
 | CC[C@H](C)[C@@H]1NC(=O)[C@H](Cc2ccccc2)NC(=O)[C@H](CCC(=O)O)NC(=O)[C@@H](NC(=O)[C@@H](NC(=O)[C@H](Cc2c[nH]c3ccccc23)NC(=O)[C@H](CC(=O)O)NC(=O)[C@@H](N)CO)C(C)C)CSSC[C@@H](C(=O)N[C@@H](CC(N)=O)C(=O)N[C@H](C(=O)N[C@@H](CC(C)C)C(=O)N[C@@H](C)C(=O)N2CCC[C@H]2C(=O)NCC(=O)NCC(=O)N[C@@H](CCC(=O)O)C(=O)NCC(=O)NCC(=O)NCC(=O)N[C@@H](CO)C(=O)N[C@@H](CCCCNC(=O)c2ccc3c(c2)C(=O)OC32c3ccc(O)cc3Oc3cc(O)ccc32)C(N)=O)C(C)C)NC(=O)[C@H](Cc2ccccc2)NC(=O)[C@H](Cc2c[nH]c3ccccc23)NC(=O)[C@H](CCC(N)=O)NC(=O)[C@H](CO)NC(=O)[C@H](CCCCN)NC1=O [Isolate 315A-17-G08] (H-SDWVCEFIKSQWFCNVLAPGGEGGGSK(5FAM)-NH2; disulfide 5-14; N-terminus assumed) | effectively bound CEA, but not as strongly as they bound NA3 | 
 | CC[C@H](C)[C@H](NC(=O)[C@H](CC(N)=O)NC(=O)[C@@H]1CSSC[C@H](NC(=O)[C@@H](NC(=O)[C@H](Cc2c[nH]c3ccccc23)NC(=O)[C@H](CC(=O)O)NC(=O)[C@@H](N)CO)C(C)C)C(=O)N[C@@H](CCC(=O)O)C(=O)N[C@@H](Cc2ccccc2)C(=O)N[C@@H](Cc2ccccc2)C(=O)N[C@@H](CCCCN)C(=O)N[C@@H](CC(=O)O)C(=O)N[C@@H](CCC(N)=O)C(=O)N[C@@H](Cc2c[nH]c3ccccc23)C(=O)N[C@@H](Cc2ccccc2)C(=O)N1)C(=O)N[C@@H](CC(C)C)C(=O)N[C@@H](C)C(=O)N1CCC[C@H]1C(=O)NCC(=O)NCC(=O)N[C@@H](CCC(=O)O)C(=O)NCC(=O)NCC(=O)NCC(=O)N[C@@H](CO)C(=O)N[C@@H](CCCCNC(=O)c1ccc2c(c1)C(=O)OC21c2ccc(O)cc2Oc2cc(O)ccc21)C(N)=O [Isolate 315A-18-E02] (H-SDWVCEFFKDQWFCNILAPGGEGGGSK(5FAM)-NH2; disulfide 5-14; N-terminus assumed) | effectively bound CEA, but not as strongly as they bound NA3 | 
at least as good as G08 and A07 | DWICNLFKNQWFCGPL (CEA binding polypeptide) [Isolate 304A-15-E04] |  | 
at least as good as G08 and A07 | DWVCNLFKNQWFCDVP (CEA binding polypeptide) [Isolate 304A-14-B02] |  | 

Molecule | phage ELISA binding profile to varying amounts of NA3 (NA3) | binding to CEA (in words) (CEA) | also measured
DWVCENKKDQWTCNLL (cysteine pairing not given here) [Isolate A07] | drops off very quickly as the amount of NA3 drops below 50 ng per well |  | 
NWVCNLFKNQWFCNSY (cysteine pairing not given here) [Isolate G08] | drops off very quickly as the amount of NA3 drops below 50 ng per well |  | 
